Like-named read-outs stand apart in the source and are kept apart here. Marks after values point to notes of the source that are not given here.
What was measured:
[1] = human, in vivo
[2] = Pharmacokinetics of ofatumumab in patients (ethnic comparison, half-life); details: 2000 mg intravenous infusion, refractory CLL
patients with RMS [3] = experiment: Annualized rate of new or enlarging T2 lesions, Phase III Studies I and II; format: in vivo, human; details: for New or enlarging T2 lesions rate reduction (%): vs teriflunomide
Experimental: (§1) Ofatumumab was investigated in 1882 patients with RMS from two identical Phase III randomized, double-blind, double-dummy, active-comparator controlled, parallel-group, multicenter studies of identical design (Study I and Study II). Patients were randomized to receive either ofatumumab, OMB (20 mg s.c injections every 4 weeks, after an initial loading regimen of 3 injections on Day 1, 7, and 14), or teriflunomide, TER (14 mg p.o. once a day) as active comparator. For brevity, the teriflunomide data are not shown hereinafter.
(§2) The maximum treatment duration for an individual patient was 30 study months (approximately 2.5 years). The two studies included a total of 71 patients of Asian race (36 patients in ofatumumab and 35 patients in teriflunomide treatment groups). This Example also includes the Asian patients data from oncology studies (Study A and Study B), as supportive data, where required.
The annualized rate of new or enlarging T2 lesions was a key secondary efficacy endpoint in the pivotal Phase III studies.

[4] = system: patients with Relapsing Multiple Sclerosis; details: for COVID-19 outcome / COVID-19 symptoms duration: serious case
patients with RMS [5] = experiment: Time to confirmed disability worsening (3mCDW, 6mCDW), Phase III Studies I and II; format: in vivo, human; details: for 3mCDW event rate n/N (%) / 3mCDW events n / 6mCDW event rate n/N (%) / 6mCDW events n: FAS
Experimental: as §1, §2
Time to 3 mCDW and 6 mCDW were key secondary efficacy endpoints in the pivotal Phase III studies.

patients with RMS [6] = experiment: Gd-enhancing T1 lesions per scan, Phase III Studies I and II; format: in vivo, human; details: for Gd-enhancing T1 lesions rate reduction (%): vs teriflunomide
Experimental: as §1, §2
The number of Gd-enhancing T1 lesions per scan was a key secondary efficacy endpoint in the pivotal Phase III studies.

patients with RMS [7] = experiment: Phase II study, Japan and non-Japan subgroups of patients with RMS; format: in vivo, human
patients with RMS [8] = experiment: Annualized relapse rate (ARR), confirmed relapses, Phase III Studies I and II; format: in vivo, human; details: for ARR (number of relapses/patient years) / Adjusted ARR (9559) / Number of relapses (confirmed): FAS; for ARR rate reduction (%): vs teriflunomide
Experimental: as §1, §2
ARR was the primary efficacy endpoint in the pivotal Phase III studies. Treatment with ofatumumab and teriflunomide were both associated with relatively low ARRs. in the Asian subgroups, with 4 to 5 confirmed relapses in any of the treatment groups (ARRs of 0.08-0.09) (Table 2).

[9] = patient 5409018, OMB interrupted
[10] = patient 5608014, OMB interrupted
[11] = patient 5800004, drug withdrawn
[12] = patient 5801015, OMB interrupted

ofatumumab [OMB]
Ofatumumab concentrations in Asian subjects and White subjects [1]: Comparable ofatumumab concentrations
Race as a covariate in the population PK analysis [1]: not found to be a significant covariate
Half-life at steady state ([1]; sc, 20 mg): approximately 16 days
PK parameters (Cmax, AUC, T1/2) in Asian vs. White patients [2]: Comparable PK parameters
New or enlarging lesions/patient years (lesion years) (patients with RMS [3]; Asian): (1.00)
Number of new or enlarging lesions (patients with RMS [3]; Asian): 44/44
New or enlarging lesions/patient years (lesion years) (patients with RMS [3]; Rest of World): (0.84
Number of new or enlarging lesions (patients with RMS [3]; Rest of World): 1185/1404
Reduction of rate of new or enlarging T2 lesions compared with teriflunomide (patients with RMS [3]; overall population): 82.9%
New or enlarging T2 lesions rate reduction (%) (patients with RMS [3]; Asian): 59.0/0.041* %
New or enlarging T2 lesions rate reduction (%) (patients with RMS [3]; Rest of World): 83.3/<0.001* %
COVID-19 outcome Ongoing, cases ([4]; non-serious cases (n = 29)): 0
COVID-19 outcome Recovered, cases ([4]; non-serious cases (n = 29)): 29
COVID-19 outcome Recovering, cases ([4]; non-serious cases (n = 29)): 0
Complete recovery from COVID-19, cases ([4]; of 35 confirmed cases): 34
COVID-19 outcome [4, 9]: Complete
COVID-19 symptoms duration [4, 9]: ~50 days
COVID-19 outcome [4, 10]: Complete
COVID-19 symptoms duration [4, 10]: 18 days
COVID-19 outcome [4, 11]: Fatal
COVID-19 symptoms duration [4, 11]: ~30 days
COVID-19 outcome ([4]; patient 5800043, OMB continued): Complete
COVID-19 symptoms duration ([4]; patient 5800043, OMB continued): 11 days
COVID-19 outcome [4, 12]: Complete
COVID-19 symptoms duration [4, 12]: 15 days
COVID-19 outcome ([4]; patient 5806001, OMB continued): Complete
COVID-19 symptoms duration ([4]; patient 5806001, OMB continued): 10 days
COVID-19 outcome Fatal, cases ([4]; serious cases (n = 6)): 1
COVID-19 outcome Recovered, cases ([4]; serious cases (n = 6)): 5
3mCDW event rate n/N (%) (patients with RMS [5]; Asian (race)): (8.3) %
3mCDW events n (patients with RMS [5]; Asian (race)): 3/36
6mCDW event rate n/N (%) (patients with RMS [5]; Asian (race)): (8.3) %
6mCDW events n (patients with RMS [5]; Asian (race)): 3/36
3mCDW event rate n/N (%) (patients with RMS [5]; Rest of World (race)): (9.3) %
3mCDW events n (patients with RMS [5]; Rest of World (race)): 85/910
6mCDW event rate n/N (%) (patients with RMS [5]; Rest of World (race)): (7.5) %
6mCDW events n (patients with RMS [5]; Rest of World (race)): 68/910
3mCDW risk reduction compared with teriflunomide (patients with RMS [5]; overall population): 33.0%
6mCDW risk reduction compared with teriflunomide (patients with RMS [5]; overall population): 31.0%
Gd-enhancing lesions/number of scans (lesion rate) (patients with RMS [6]; Asian): (0.019)
Number of Gd-enhancing lesions (patients with RMS [6]; Asian): 1/54
Gd-enhancing lesions/number of scans (lesion rate) (patients with RMS [6]; Rest of World): (0.031)
Number of Gd-enhancing lesions (patients with RMS [6]; Rest of World): 51/1666
Reduction of mean number of Gd-enhancing T1 lesions per scan compared with teriflunomide (patients with RMS [6]; overall population): 95.8%
Gd-enhancing T1 lesions rate reduction (%) (patients with RMS [6]; Asian): 93.8/0.022* %
Gd-enhancing T1 lesions rate reduction (%) (patients with RMS [6]; Rest of World): 95.9/<0.001* %
Depletion of CD19+ B-cells and CD3+CD20+ T-cells (patients with RMS [7]): rapid and consistent depletion
Efficacy vs. placebo in lesion suppression (patients with RMS [7]; Phase II study): superior efficacy
ARR (number of relapses/patient years) (patients with RMS [8]; Asian (race)): (0.084)
Adjusted ARR (9559) (patients with RMS [8]; Asian (race)): 0.08 (0.03, 0.24)
Number of relapses (confirmed) (patients with RMS [8]; Asian (race)): 4/47
ARR (number of relapses/patient years) (patients with RMS [8]; Rest of World (race)): (0.122)
Adjusted ARR (9559) (patients with RMS [8]; Rest of World (race)): 0.12 (0.10, 0.14)
Number of relapses (confirmed) (patients with RMS [8]; Rest of World (race)): 181/1490
Reduction of adjusted ARR compared with teriflunomide (patients with RMS [8]; overall population): 52.6%
ARR rate reduction (%) (patients with RMS [8]; Asian (race)): 11.8/0.862%
ARR rate reduction (%) (patients with RMS [8]; Rest of World (race)): 53.3/<0.001* %
ARR rate reduction (%) (patients with RMS [8]; Rest of World (race), listed as ofatumumab): 53.3%
